Measurements reported in US20250002475A1 (EPICS THERAPEUTICS, priority 2023, published 2025).
pIC50: −log10 of the molar value.

What was measured:
Kasumi-1 cells = experiment: Kasumi-1 cellular viability assay (ATP-Lite, 72 h); type: cell-based; conditions: Homo sapiens, ATP-Lite luminescence, % viability relative to DMSO
Procedure, shortened: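 Viability was read by ATP-Lite One Step luminescence after 72 h compound treatment at 37 °C/5% CO2, normalised to DMSO control, with IC50 fitted from concentration-response. Cells were Kasumi-1 (AML FAB M2) at 15000 per well in RPMI-1640/10% FBS, 0.1% DMSO final.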

Caov-3 cells = experiment: Caov-3 cellular viability assay (ATP-Lite, 72 h); type: cell-based; conditions: Homo sapiens, ATP-Lite luminescence, % viability relative to DMSO
Procedure, shortened: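 IC50 values come from concentration-response fits of luminescent ATP content (ATP-Lite One Step), normalised as % viability versus DMSO. Compound exposure was 72 h at 37 °C in RPMI-1640/10% FBS with 0.1% final DMSO. Wells held 10000 cells each.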

[1] = target: T1, recombinant METTL3/METTL14 complex (Homo sapiens, UniProt Q86U44); experiment: METTL3/14 Scintillation Proximity Assay (SPA), RNA methyltransferase activity; type: biochemical; conditions: 5.31 nM METTL3/14 complex, 250 nM RNA substrate, 1 μM 3H-SAM, 90 min; for compounds marked * best of the two separated forms
T1 construct: purchased Active Motif 311970; host or cells: Sf9 cells
T1 sequence (Q86U44 whole entry): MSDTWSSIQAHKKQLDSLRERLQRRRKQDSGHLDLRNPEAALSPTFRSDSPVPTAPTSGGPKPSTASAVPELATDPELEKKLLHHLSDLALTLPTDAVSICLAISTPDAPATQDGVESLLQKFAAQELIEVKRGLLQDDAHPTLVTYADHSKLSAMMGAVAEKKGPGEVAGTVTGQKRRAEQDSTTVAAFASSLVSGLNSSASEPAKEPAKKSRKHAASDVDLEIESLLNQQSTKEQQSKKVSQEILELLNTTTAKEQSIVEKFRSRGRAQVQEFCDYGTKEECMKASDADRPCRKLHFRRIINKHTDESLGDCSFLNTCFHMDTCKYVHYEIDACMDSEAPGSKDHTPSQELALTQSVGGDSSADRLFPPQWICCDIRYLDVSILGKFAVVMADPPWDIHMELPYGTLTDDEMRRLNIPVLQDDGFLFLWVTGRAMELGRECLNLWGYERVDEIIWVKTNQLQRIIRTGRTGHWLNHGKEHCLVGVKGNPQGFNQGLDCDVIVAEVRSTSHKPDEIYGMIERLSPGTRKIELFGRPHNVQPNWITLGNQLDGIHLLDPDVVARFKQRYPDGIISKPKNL
T1 sequence (Q9HCE5 whole entry partner): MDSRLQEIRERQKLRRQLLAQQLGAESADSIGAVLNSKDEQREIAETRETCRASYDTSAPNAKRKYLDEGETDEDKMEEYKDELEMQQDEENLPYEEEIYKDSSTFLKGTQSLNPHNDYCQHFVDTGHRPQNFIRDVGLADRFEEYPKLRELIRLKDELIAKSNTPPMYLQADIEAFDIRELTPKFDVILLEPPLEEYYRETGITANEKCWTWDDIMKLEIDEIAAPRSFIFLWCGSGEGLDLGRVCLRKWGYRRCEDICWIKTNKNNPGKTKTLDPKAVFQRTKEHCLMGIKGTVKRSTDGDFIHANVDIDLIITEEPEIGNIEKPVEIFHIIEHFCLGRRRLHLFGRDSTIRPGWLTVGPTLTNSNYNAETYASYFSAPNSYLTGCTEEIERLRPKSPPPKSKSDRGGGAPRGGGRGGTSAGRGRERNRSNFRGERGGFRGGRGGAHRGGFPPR

pIC50 [1] | SMILES | pIC50 (Kasumi-1 cells) | pIC50 (Caov-3 cells)
≥ 7.30 | CC(c1ccc(N2CCC[C@@H](NCC3(C)CC3)C2)cn1)n1cnc(-c2cncc(N3CCCC3)n2)c1 (single isomer, unassigned) [Compound 365] | ≥ 6.30 | ≥ 6.30
≥ 7.30 | CC(c1ccc(N2CCC[C@@H](NCC3(C)CC3)C2)cn1)c1nnc(-c2cncc(N3CCCC3)n2)s1 (single isomer, unassigned) [Compound 366] | ≥ 6.30 | ≥ 6.30
≥ 7.30 | O=C(NCc1ccc(N2CCC[C@@H](NCC3CCC3)C2)nn1)c1cc(=O)n2ccccc2n1 [Compound 002, (R)-N-((6-(3-((cyclobutylmethyl)amino)piperidin-1-yl)pyridazin-3-yl)methyl)-4-oxo-4H-pyrido[1,2-a]pyrimidine-2-carboxamide] | < 5.30 | < 5.30
≥ 7.30 | c1cc(-c2cn(Cc3ccc(N4CCC[C@@H](NCC5CCC5)C4)nn3)nn2)c2cncn2c1 [Compound 003, (R)-N-(cyclobutylmethyl)-1-(6-((4-(imidazo[1,5-a]pyridin-8-yl)-1H-1,2,3-triazol-1-yl)methyl)pyridazin-3-yl)piperidin-3-amine] | 5.30 to 6.30 | < 5.30
≥ 7.30 | COc1cc(-c2cn(Cc3ccc(N4CCCC(N5CCC(C)CC5)C4)nn3)nn2)c2cn[nH]c2c1 (stereo not drawn) [Compound 007, 6-methoxy-4-(1-((6-(4-methyl-[1,3′-bipiperidin]-1′-yl)pyridazin-3-yl)methyl)-1H-1,2,3-triazol-4-yl)-1H-indazole] | 5.30 to 6.30 | 5.30 to 6.30
6.30 to 7.30 | O=C(NCc1ccc(N2CCC[C@@H](NCC3CCC3)C2)nn1)c1cc(=O)n2ccsc2n1 [Compound 010, (R)-N-((6-(3-((cyclobutylmethyl)amino)piperidin-1-yl)pyridazin-3-yl)methyl)-5-oxo-5H-thiazolo[3,2-a]pyrimidine-7-carboxamide] | < 5.30 | < 5.30
≥ 7.30 | COc1cc(-c2cn(Cc3ccc(N4CCC[C@@H](NCC5CC5)C4)nn3)nn2)c2cn[nH]c2c1 [Compound 015, (R)-N-(cyclopropylmethyl)-1-(6-((4-(6-methoxy-1H-indazol-4-yl)-1H-1,2,3-triazol-1-yl)methyl)pyridazin-3-yl)piperidin-3-amine] | 5.30 to 6.30 | ≥ 6.30
≥ 7.30 | COc1cc(-c2cn(Cc3ccc(N4CCC[C@@H](NCC56CC(F)(C5)C6)C4)nn3)nn2)c2cn[nH]c2c1 [Compound 018, (R)-N-((3-fluorobicyclo[1.1.1]pentan-1-yl)methyl)-1-(6-((4-(6-methoxy-1H-indazol-4-yl)-1H-1,2,3-triazol-1-yl)methyl)pyridazin-3-yl)piperidin-3-amine] | 5.30 to 6.30 | ≥ 6.30
≥ 7.30 | COc1cnc(C#N)c(-c2cn(Cc3ccc(N4CCC[C@@H](NCC5CCC5)C4)nn3)nn2)c1 [Compound 019, (R)-3-(1-((6-(3-((cyclobutylmethyl)amino)piperidin-1-yl)pyridazin-3-yl)methyl)-1H-1,2,3-triazol-4-yl)-5-methoxypicolinonitrile] | < 5.30 | < 5.30
≥ 7.30 | COc1cc(-c2cn(Cc3ccc(N4CCCC(NCC56CC(C)(C5)C6)C4)nn3)nn2)c2cn[nH]c2c1 (stereo not drawn) [Compound 020, 1-(6-((4-(6-methoxy-1H-indazol-4-yl)-1H-1,2,3-triazol-1-yl)methyl)pyridazin-3-yl)-N-((3-methylbicyclo[1.1.1]pentan-1-yl)methyl)piperidin-3-amine] | 5.30 to 6.30 | 5.30 to 6.30

Continued, molecule first:

SMILES | pIC50 [1] | pIC50 (Kasumi-1 cells) | pIC50 (Caov-3 cells)
CC(c1ccc(N2CCC[C@@H](NCC3CC3)C2)cn1)c1nnc(-c2cncc(N3CCCC3)n2)s1 (single isomer, unassigned) [Compound 360] | ≥ 7.30 | ≥ 6.30 | ≥ 6.30
c1cc(C2(n3cc(-c4cncc(N5CCCC5)n4)nn3)COC2)ncc1N1CCCC(NCC2CCC2)C1 (stereo in doubt) [Compound 290, (R)-N-(cyclobutylmethyl)-1-(6-(3-(4-(6-(pyrrolidin-1-yl)pyrazin-2-yl)-1H-1,2,3-triazol-1-yl)oxetan-3-yl)pyridin-3-yl)piperidin-3-amine] | ≥ 7.30 | ≥ 6.30 | ≥ 6.30
COc1cc(-c2cn(Cc3ccc(N4CCC[C@@H](NCC5CCC5)C4)nn3)nn2)c2cn[nH]c2c1 [Compound 001, (R)-N-(cyclobutylmethyl)-1-(6-((4-(6-methoxy-1H-indazol-4-yl)-1H-1,2,3-triazol-1-yl)methyl)pyridazin-3-yl)piperidin-3-amine] | ≥ 7.30 | 5.30 to 6.30 | ≥ 6.30
COc1cc(-c2cn(Cc3ccc(N4CCCC(N5CCC(C)(C)CC5)C4)nn3)nn2)c2cn[nH]c2c1 (stereo not drawn) [Compound 006, 4-(1-((6-(4,4-dimethyl-[1,3′-bipiperidin]-1′-yl)pyridazin-3-yl)methyl)-1H-1,2,3-triazol-4-yl)-6-methoxy-1H-indazole] | ≥ 7.30 | 5.30 to 6.30 | 5.30 to 6.30
COc1cc(-c2cn(Cc3ccc(N4CCCC(N5CCC6(CCC6)C5)C4)nn3)nn2)c2cn[nH]c2c1 (stereo not drawn) [Compound 008, 4-(1-((6-(3-(6-azaspiro[3.4]octan-6-yl)piperidin-1-yl)pyridazin-3-yl)methyl)-1H-1,2,3-triazol-4-yl)-6-methoxy-1H-indazole] | ≥ 7.30 | < 5.30 | 5.30 to 6.30
c1cc2cc(-c3cn(Cc4ccc(N5CCC[C@@H](NCC6CCC6)C5)nn4)nn3)cnc2[nH]1 [Compound 009, (R)-1-(6-((4-(1H-pyrrolo[2,3-b]pyridin-5-yl)-1H-1,2,3-triazol-1-yl)methyl)pyridazin-3-yl)-N-(cyclobutylmethyl)piperidin-3-amine] | ≥ 7.30 | 5.30 to 6.30 | 5.30 to 6.30
O=C(NCc1ccc(N2CCCC(NCC34CC(F)(C3)C4)C2)nn1)c1cc(=O)n2ccccc2n1 (stereo not drawn) [Compound 011, N-((6-(3-(((3-fluorobicyclo[1.1.1]pentan-1-yl)methyl)amino)piperidin-1-yl)pyridazin-3-yl)methyl)-4-oxo-4H-pyrido[1,2-a]pyrimidine-2-carboxamide] | 6.30 to 7.30 | < 5.30 | < 5.30
COc1cncc(-c2cn(Cc3ccc(N4CCC[C@@H](NCC5CCC5)C4)nn3)nn2)c1 [Compound 012, (R)-N-(cyclobutylmethyl)-1-(6-((4-(5-methoxypyridin-3-yl)-1H-1,2,3-triazol-1-yl)methyl)pyridazin-3-yl)piperidin-3-amine] | ≥ 7.30 | 5.30 to 6.30 | 5.30 to 6.30
COc1cc(-c2cn(Cc3ccc(N4CCC[C@@H](NCC5CCC5)C4)nn3)nn2)c2cncn2c1 [Compound 013, (R)-N-(cyclobutylmethyl)-1-(6-((4-(6-methoxyimidazo[1,5-a]pyridin-8-yl)-1H-1,2,3-triazol-1-yl)methyl)pyridazin-3-yl)piperidin-3-amine] | ≥ 7.30 | 5.30 to 6.30 | ≥ 6.30
O=c1cc(-c2cn(Cc3ccc(N4CCC[C@@H](NCC5CCC5)C4)nn3)nn2)nc2ccccn12 [Compound 017, (R)-2-(1-((6-(3-((cyclobutylmethyl)amino)piperidin-1-yl)pyridazin-3-yl)methyl)-1H-1,2,3-triazol-4-yl)-4H-pyrido[1,2-a]pyrimidin-4-one] | ≥ 7.30 | < 5.30 | < 5.30
